Drawing on a melting point compilation (Tetko et al.), this text covers melting point for 123 molecules.

For orientation: melting point means the temperature of the solid-liquid transition.

Structures are written as SMILES. Bounds are passed on as bounds.

Consider `ClCc1nnc(-c2ccco2)o1`, for which the melting point is 81 to 83 °C.
The value for `COC(=O)c1cccc(NC(=O)CC(C)=O)c1` was 75 to 77 °C; that for `NC1(C(=O)O)Cc2ccccc2C1` was 254 to 256 °C; that for `NC(=O)c1ccc(N2CCCCC2)c(N)c1` was 168 to 170 °C.
The value for `CNCc1ccc(C(=O)NC)o1` was 65 to 67 °C; that for `O=Cc1ccc(Oc2ccc([N+](=O)[O-])cc2Cl)c(F)c1` was 81 to 83 °C; that for `CN(C)C(=O)c1ccc(Cl)c(NC(=O)OCC(F)(F)F)c1` was 96 to 98 °C.
Molecule `O=C(O)C1Cc2cccc(F)c2O1` (stereo not drawn) registered a melting point of 126 to 128 °C.
The value for `N#CSCC(=O)c1ccccc1Cl` was 56 to 58 °C.
The value for `Cc1nn(-c2ccc(F)cc2)c(Cl)c1C(=O)O` was 253 to 255 °C.
Consider `O=C(NCCc1cccs1)C1Cc2ccccc2CN1` (stereo not drawn), for which the melting point lay within 86 to 88 °C.
The value for `Cc1ccccc1-n1c(S)nc(O)cc1=O` was 206 to 208 °C; that for `O=C(O)CC1C=CS(=O)(=O)C1` (stereo not drawn) was 81 to 83 °C.
In the case of `N#Cc1cc(N)cnc1N` it was 129 to 131 °C; in that of `Nc1ccc(NC(=O)CCN2C(=O)CNC2=O)cc1`, 234 to 236 °C; in that of `O=C(O)C1COCCO1` (stereo not drawn), 59 to 61 °C.
In the case of `Cc1ccc(OC(C)C(=O)O)cc1` (stereo not drawn) it was 101 to 103 °C; in that of `CCOC(=O)Cc1nnc(S)n1Cc1ccco1`, below 17 °C; in that of `O=C1NCc2ccccc2N1CCO`, 107 to 109 °C.
`Cc1ccccc1-c1cc(N)[nH]n1` had a melting point of 168 to 170 °C.
In the case of `ClCc1ccc(-n2cccn2)cc1` it was 57 to 59 °C; in that of `COC(=O)c1sc(N)c(C(=O)OC)c1CBr`, 163 to 165 °C.
For `O=C(O)C1(c2ccc(Br)cc2)CCCC1`, the melting point was 176 to 178 °C.
The value for `OCc1c(Cl)ccc2cccnc12` was 93 to 95 °C; that for `Cn1ccnc1SCc1cccc(C(=O)O)c1` was 157 to 159 °C; that for `Cc1c(C)c(C)c(C(=O)CCl)c(C)c1C` was 70 to 72 °C.
In the case of `CCC(CO)NC(=O)Cc1ccc(N)cc1` (stereo not drawn) it was 107 to 109 °C.
Regarding `NC(=NO)c1ccc2c(c1)CCO2`, the melting point lay within 215 to 217 °C.
Molecule `Cc1ccnc(N)c1C#N` showed a melting point of 148 to 150 °C.
`COc1ccc(Br)cc1C1NC(=O)NC1=O` (stereo not drawn) showed a melting point of 209 to 211 °C.
The value for `Fc1ccc(-c2cc(CBr)on2)cc1` was 74 to 76 °C; that for `O=C(O)c1cc(S(=O)(=O)N2CCOCC2)ccc1Cl` was 183 to 185 °C.
In the case of `CSC(=C(C#N)C#N)N1CCOCC1`, the melting point lay within 143 to 145 °C.
The value for `COc1ccc(NCC(=O)NN)cc1` was 94 to 98 °C; that for `O=C(O)CNS(=O)(=O)c1ccc2ccccc2c1` was 180 to 182 °C; that for `Cc1ccc(NC(=O)CC2(C(=O)O)CCCC2)cc1` was 191 to 193 °C.
`O=C(O)c1cnc2scc(-c3ccccc3)n2c1=O` yielded a melting point of 244 to 246 °C.
In the case of `Nc1nc(Cc2ccc(Br)cc2)cs1` it was 146 to 148 °C; in that of `Cc1ccc(Cl)c(C(=O)O)c1N`, 152 to 154 °C; in that of `NC(=O)c1cccnc1Sc1ccc(C(=O)O)cc1`, 257 to 259 °C.
In the case of `CCOC(=O)C1CC1c1ccc(OC)cc1` (stereo not drawn) it was 78 to 80 °C.
In the case of `COC(=O)c1cc([N+](=O)[O-])c(F)cc1Cl` it was 59 to 61 °C.
Turning to `O=C(O)c1cc(NCc2ccccc2)nc2ccccc12`, the melting point lay in the range of 339 to 341 °C.
The value for `O=C(c1ccccc1)c1ncccn1` was 79 to 81 °C; that for `CCOc1ccc(OC(C)(C)C(=O)O)cc1` was 66 to 68 °C; that for `Cc1ccccc1CC(=O)NN` was 129 to 131 °C.
The value for `Cc1ccc(-n2nnc(C(=O)O)c2C)cc1` was 184 to 186 °C; that for `COc1ccc(Br)cc1CCC(=O)O` was 116 to 118 °C; that for `O=C(O)c1ccccc1NS(=O)(=O)c1ccc(F)cc1` was 165 to 167 °C.
In the case of `O=S1(=O)CCC(c2nnc(S)o2)C1` (stereo not drawn) it was 181 to 183 °C; in that of `CC(C)c1ccc(C2(O)CCC(=O)CC2)cc1`, 134 to 136 °C; in that of `COc1ccccc1C(NC(=O)OC(C)(C)C)C(=O)O` (stereo not drawn), 146 to 148 °C.
Molecule `Cc1nn(-c2ccccc2)c(Cl)c1CCl` had a melting point of 35 to 41 °C.
In the case of `CC(C)(C)OC(=O)N1CCCC(COS(C)(=O)=O)C1` (stereo not drawn) it was 76 to 78 °C; in that of `COc1ccc(NC(=O)CCCl)c([N+](=O)[O-])c1`, 97 to 99 °C.
The value for `Cc1c(C(=O)O)cnn1-c1ccccn1` was 174 to 176 °C; that for `N#Cc1nc(-c2ccco2)oc1N1CCNCC1` was 129 to 131 °C; that for `COC(=O)c1c(O)cc(=O)n2c1CCCCC2` was 222 to 224 °C.
As for `O=[N+]([O-])c1cccc2c1CCN2`, the melting point fell in the range of 111 to 113 °C.
The value for `CCOC(=O)c1cnn2c1nc(Cl)c1ccccc12` was 129 to 131 °C; that for `Nc1ccc(-n2cncn2)nc1` was 188 to 190 °C; that for `Nc1ccccc1Cn1ccnc1` was 81 to 83 °C.
In turn, `CC1=NOC(=O)C1CC(=O)O` (stereo not drawn) had a melting point of 149 to 151 °C.
Consider `Cc1ccc(-n2nc(C)cc2N)nn1`, for which the melting point lay in the range of 119 to 121 °C.
As to `CCOc1ccc(-c2nnc(N)o2)cc1`, the melting point lay within 238 to 240 °C.
In the case of `CCCCn1nc(C(=O)O)ccc1=O` it was 119 to 121 °C; in that of `Cc1ncc(C(=O)O)s1`, 209 to 211 °C.
In the case of `CCOC(=O)c1sc(-c2ccc(Cl)cc2Cl)cc1N` it was 100 to 102 °C.
In the case of `N#CCC(=O)Cc1ccc(Cl)cc1` it was 85 to 87 °C; in that of `O=C1C(=O)N(Cc2ccc(Cl)cc2)c2ccccc21`, 163 to 165 °C; in that of `COC(=O)Cc1c(C(=O)OC)sc2nc(CCl)[nH]c(=O)c12`, 208 to 210 °C.
Regarding `NC(=S)C1CN2CCCC2CO1` (stereo not drawn), the melting point lay in the range of 146 to 148 °C.
In the case of `CC(=O)c1c(C)oc2nc(Br)nn12` it was 118 to 120 °C; in that of `COC(=O)c1cc2ccc(Cl)cc2[nH]1`, 181 to 183 °C.
In the case of `COc1nc2ccccc2cc1/C=C/C(=O)O` it was 219 to 221 °C.
The value for `O=C(CCl)NN1C(=O)NC2(CCCCC2)C1=O` was 105 to 107 °C; that for `NC(=O)c1ccsc1N` was 160 to 162 °C.
Molecule `Cc1cccnc1CC(=O)C(F)(F)F` returned a melting point of 121 to 123 °C.
For the molecule `Cc1c(C=O)c2ccccn2c1C#N`, the melting point is 170 to 172 °C.
For the molecule `CC(C)(C)c1noc(N)n1`, the melting point lay in the range of 192 to 194 °C.
The value for `O=c1c2c([nH]c3ccc(Oc4ccccc4)cc13)CCCC2` was 319 to 321 °C.
In the case of `CCNc1ncc(C(=O)O)s1` it was 187 to 189 °C; in that of `Cc1cn(-c2cccnc2)nc1N`, 135 to 137 °C; in that of `NNc1ccncc1Cl`, 158 to 160 °C.
In the case of `CC(C)CC(N)C(=O)N1CCNC(=O)C1` (stereo not drawn) it was 162 to 164 °C; in that of `O=S(=O)(Cl)Cc1noc2ccccc12`, 96 to 98 °C; in that of `OCCNc1ccncc1`, 110 to 112 °C.
In turn, `CC(C)Oc1ccc(C(O)CN2CCN(C)CC2)cc1` (stereo not drawn) had a melting point of 103 to 105 °C.
The value for `O=C(O)Cc1cnn(-c2ccccc2)n1` was 105 to 107 °C; that for `O=C(O)CCNC(=O)c1ccc(Br)cc1` was 142 to 144 °C.
In the case of `O=C1CCc2cc(O)ccc2N1` it was 239 to 241 °C; in that of `Nc1ccc(OCc2ccccc2)nc1`, 42 to 44 °C; in that of `C=CCn1c(S)nnc1-c1ccoc1C`, 293 to 295 °C.
In the case of `COC(=O)c1c(NC(=O)CCl)sc2c1CCC2` it was 98 to 100 °C.
For the molecule `Fc1cccc(F)c1-n1ccc(CCl)n1`, the melting point was in the range of 39 to 41 °C.
On to `Cc1ccccc1/C=C/c1cc(C(=O)O)c2cc(Br)ccc2n1`, for which the melting point lay in the range of 289 to 291 °C.
In the case of `CCOc1cc(C(=O)O)cc(-c2ccccc2)c1OC`, the melting point was 161 to 163 °C.
`N#Cc1ccc(N2CCN(c3ccc(F)cc3)CC2)nc1` displayed a melting point of 166 to 168 °C.
The value for `O=C(CCCl)N1CCN(c2ccc(F)cc2)CC1` was 99 to 101 °C; that for `CCOC(=O)c1cnccn1` was 48 to 50 °C.
The value for `Cc1cc(NC(=O)C(C)SCC(=O)O)no1` (stereo not drawn) was 125 to 127 °C.
Molecule `CCOC(=O)c1sc2nc(CN(C)C)nc(Cl)c2c1C` registered a melting point of 114 to 116 °C.
In the case of `O=C(O)Cc1cccc(OCc2cccc(Cl)c2)c1` it was 94 to 96 °C; in that of `CN(C)c1ccc(C(N)=O)cc1`, 207 to 209 °C; in that of `CC(=CC(=O)O)c1ccccc1C`, 81 to 83 °C.
In the case of `c1cc(-c2nnco2)ccn1` it was 119 to 121 °C; in that of `Cc1ccc(S(N)(=O)=O)cc1NC(=O)CCl`, 179 to 181 °C.
In the case of `COc1ccc(OCC(=O)O)c(C=O)c1` it was 154 to 156 °C.
The molecule `Cc1csc(NC(=O)Cc2ccc(N)cc2)n1` registered a melting point of 143 to 145 °C.
The value for `Nc1cc(S(=O)(=O)NC2CC2)ccc1Cl` was 125 to 127 °C.
The value for `COCCCS(N)(=O)=O` was 41 to 43 °C; that for `ClCc1csc(-c2ncccn2)n1` was 147 to 149 °C; that for `CN(C)S(=O)(=O)c1cc(NC(=O)CCl)ccc1Cl` was 183 to 185 °C.
`NC(=O)CSc1ccccc1N`: the melting point lay in the range of 113 to 115 °C.
In the case of `O=C(O)CCSc1ccccc1` it was 59 to 61 °C; in that of `O=Cc1ccc(-c2cccs2)cc1F`, 73 to 75 °C; in that of `O=C(O)c1cccc(-n2[nH]c(=O)ccc2=O)c1`, 312 to 314 °C.
As for `COc1c(Cl)cc(Cl)cc1C=O`, the melting point lay within 85 to 87 °C.
In the case of `Cc1cc(C)c2c(c1)NCCC2` it was 34 to 36 °C; in that of `O=C1CSC(N2CCCCC2)=N1`, 76 to 80 °C.
As to `CCC(C)c1csc(NC)n1` (stereo not drawn), the melting point was 49 to 51 °C.
In the case of `NS(=O)(=O)Cc1ccon1` it was 106 to 108 °C.
Turning to `CNC(=O)c1cccc(N)c1C`, the melting point was 178 to 180 °C.
